Measurements taken from article PMC11696576, “Next generation thiazolyl ketone inhibitors of cytosolic phospholipase A2 α for targeted cancer therapy” (Nature Communications, 2025).
Where “and” joins values, the source holds several entries; their conditions need not be identical. Identical values can stand only once. Like-named read-outs stand apart in the source and are kept apart here. Marks after values point to notes of the source that are not given here.

Tests used:
[1] = stability in human plasma (LC-MS/MS); format: in vitro ADME; details: for Stability in human plasma 4 h: % of the compound remaining after 4 h
Method: The stability of the analogs in human plasma was studied over approximately 24 h by LC-MS/MS and the results at 4 h and the final timepoint (20–25 h) are included in Table 1.
The metabolic stability of the compounds was determined through in vitro stability assays in human plasma. Solutions of compounds in DMSO (20 mM) were diluted to 5 μg/mL in 50% methanol for infusion into the MS/MS system and spiking of calibration standards and control samples. For the MS detection, positive ionization in ESI mode was used. Good sensitivity, retention and peak shaped were achieved using a gradient with 5 mM ammonium carbamate in water and ammonium carbamate in 90% acetonitrile on a reversed phase column (ACE3AQ). Calibration standards were spiked in a calibration range of 0.5–100 ng/ml. Control samples were spiked at, low, medium, and high concentration levels. The spiked plasma samples were prepared by protein precipitation using acetonitrile containing appropriate internal standard (IS). […] Samples were prepared for analysis by taking 50 μL of plasma sample and adding 100 μL of IS working solution in acetonitrile followed by vortexing at 2500 rpm (Multi-tube vortexer DVX-2500, Henry Troemner LLC, USA) for 2 min. The samples were centrifuged at 5300 rpm (Heraeus Megafuge 1.0 Heraeus, Germany) for 3 min and the supernatant transferred to the autosampler. Recovery was determined by comparing the prepared matrix samples (protein precipitation) with a direct sample (analytes spikes in 67% acetonitrile = injection solution) such that the recovery of the sample preparation and the matrix effects were determined together. Two or three samples were each measured in technical triplicates to give the final % recovery.

SW982 synoviocytes = assay: cellular arachidonic acid (AA) release assay, IL-1β stimulated; format: cell-based, human; details: for EC50 / IC50: SW982; for IC50: concentration in µM, read-out: logEC50 best-fit value, AA release (converted)
Excerpt: To test the inhibitory activity of the compounds in cells, we measured their effect on the release of AA from synoviocytes stimulated with IL-1β (Table 2). […] Combined with favorable selectivity and stability it was thus chosen for further evaluation. We looked specifically at how it modulated eicosanoid levels in response to stimulation both in whole blood and in isolated peripheral blood mononuclear cells (PBMCs) and checked for off-target effects on AA metabolism in whole blood by also measuring the effect of GK420 on eicosanoid release in the presence of exogenous free AA.
The human synovial sarcoma cell line SW982 (ATCC, London, UK) was used to measure AA release. The cells were maintained in Dulbecco’s Modified Eagle Medium (DMEM) supplemented with 10% FBS, 0.1 mg/mL gentamicin, and 0.3 mg/mL L-glutamine at 37 °C with 10% CO2, and experiments were performed at 3 days post-confluence. To measure AA release, the cells were labeled overnight with ^3H-AA (0.4 μCi/mL) in serum-free DMEM and then washed twice with PBS containing fBSA (2 mg/mL) to remove unincorporated radioactivity. The inhibitors, or DMSO vehicle control, were subsequently added to the cells for 1 hour prior to stimulation with 10 ng/mL IL-1β for 4 h. Supernatants were collected and centrifuged at 300 × g for 5 min to clear them of detached cells and adherent cells were dissolved in 1 N NaOH. The ^3H-AA was assessed by liquid scintillation counting (LS 6500 Multi-Purpose Scintillation Counter, Beckman Coulter, Inc., USA) and the results are given as the inhibition of released ^3H-AA in the supernatants relative to total ^3H-AA incorporated into the cells, as described. EC50 values were calculated by fitting the % inhibition data to a three-parameter dose-response curve in GraphPad prism v10.4.0. Experiments were performed in technical triplicates and repeated at least three times.

recombinant human cPLA2α = molecular target: T1, recombinant human cPLA2α (Homo sapiens, UniProt P47712); assay: radioactivity-based mixed micelle assay, cPLA2α; format: biochemical; details: for cPLA2α XI(50): XI(50) ± stdev, mole fraction of inhibitor in total substrate interface for 50% inhibition; for cPLA2α inhibition, Xi50 dose-response: replicates; for cPLA2 % inhibition at 0.091 mole fraction, average: average of triplicates
T1 sequence (P47712 1-749): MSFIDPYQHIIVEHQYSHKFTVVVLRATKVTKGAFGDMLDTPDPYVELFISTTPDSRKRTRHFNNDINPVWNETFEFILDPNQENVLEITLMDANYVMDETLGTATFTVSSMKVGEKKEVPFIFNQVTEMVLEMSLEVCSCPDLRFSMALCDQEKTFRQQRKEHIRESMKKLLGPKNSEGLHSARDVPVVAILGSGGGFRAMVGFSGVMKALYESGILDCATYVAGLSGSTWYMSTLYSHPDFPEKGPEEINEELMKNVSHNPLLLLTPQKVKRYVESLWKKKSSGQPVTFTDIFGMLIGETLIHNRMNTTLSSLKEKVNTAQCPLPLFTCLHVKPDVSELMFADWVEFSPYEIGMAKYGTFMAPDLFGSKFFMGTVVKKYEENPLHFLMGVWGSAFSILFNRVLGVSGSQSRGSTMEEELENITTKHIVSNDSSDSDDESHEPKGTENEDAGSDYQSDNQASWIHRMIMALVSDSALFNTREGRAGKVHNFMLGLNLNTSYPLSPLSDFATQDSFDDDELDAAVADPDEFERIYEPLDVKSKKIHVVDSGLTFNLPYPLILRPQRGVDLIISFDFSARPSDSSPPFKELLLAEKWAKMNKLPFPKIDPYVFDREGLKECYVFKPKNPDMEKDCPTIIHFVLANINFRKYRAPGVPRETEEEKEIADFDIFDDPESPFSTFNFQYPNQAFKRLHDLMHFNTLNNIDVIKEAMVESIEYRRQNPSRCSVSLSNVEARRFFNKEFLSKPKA
Method: All synthesized thiazolyl ketones were tested for their in vitro inhibitory activity on recombinant human cPLA2α and selectivity over human calcium-independent GVIA iPLA2 and secreted GV sPLA2 using our previously described group-specific radioactivity-based mixed micelle assays. The inhibition results are presented either as per cent inhibition or as XI(50) values in Table 1. […] The XI(50) is defined as the mole fraction of the inhibitor in the total substrate interface required to inhibit the enzyme activity by 50%. For comparison purposes, previously published data for the inhibitor GK470[19] are included. […] Inhibitors were initially screened at 0.091 mol fraction (5 μL of 5 mM inhibitor in DMSO) in substrate (495 μL) in technical triplicates. […] The XI(50) value and stdev values reported are for the entire curve. This analysis was performed in GraphPad Prism v6.

[2] = individual sample, human plasma
[3] = 0.2 µM, individual biological replicate
[4] = 1 µM, individual biological replicate
[5] = 5 µM, individual biological replicate
[6] = Homo sapiens, SW982, 4 h, 1 µM inhibitor, IL-1β 4 h, mean ± stdev, read-out: AA release % Inhib
[7] = Homo sapiens, IL-1β 4 h, 0.2, 1 or 5 µM inhibitor, read-out: AA release EC50 µM (95% CI)
[8] = Homo sapiens, [Agonist] vs. Response (three parameters)
[9] = Homo sapiens, [Agonist] vs. Response (three parameters), read-out: EC50 best-fit value, AA release
[10] = 0.091 mole fraction, read-out: cPLA2α % Inhib
[11] = individual technical replicate, read-out: cPLA2 % inhibition at 0.091 mole fraction
[12] = % of the compound remaining after 24 h 39 min (*)

Row | Stability in human plasma 4 h [1] [%] | plasma stability 4h (%) [1, 2] | EC50 (SW982 synoviocytes; [7]) [µM] | IC50 (SW982 synoviocytes; [8]) [µM] | EC50 (SW982 synoviocytes; [9]) [µM] | inhibition at 0.091 mole fraction (recombinant human cPLA2α; [10]) [%] | inhibition at 0.091 mole fraction (recombinant human cPLA2α; [11]) [%] | Stability in human plasma 20+ h [1, 12] | plasma stability 24h39min (%) [1, 2] | cPLA2 % inhibition at 0.091 mole fraction, average (recombinant human cPLA2α) [%] | SMILES | % inhibition of stimulated AA release (SW982 synoviocytes; [3]) | % inhibition of stimulated AA release (SW982 synoviocytes; [4]) | % inhibition of stimulated AA release (SW982 synoviocytes; [5]) | inhibition at 1 µM (SW982 synoviocytes; [6]) [%] | cPLA2α XI(50) (recombinant human cPLA2α) | also measured
1 | 35.9 | 36.5% and 35.3% | 9.34 | 9.34 | 9.34 | 94 | 94.2 | – | – | – | COC(=O)c1csc(C(=O)C(C)Oc2ccc(Oc3ccccc3)cc2)n1 (centres unmarked) [GK428] | 5.86% and -31.46% and 2.89% and 15.93% | 17.3% and 4.11% and 8.14% and 18.84% | 51.1% and 33.6% and 14.73% and 37.63% | 12 ± 7 | 0.0038 mole fraction and 0.0038 ± 0.0001 mole fraction | Stability in human plasma 20+ h ([1]; % of the compound remaining after 20 h): 1.65%; plasma stability 20h (%) [1, 2]: 2.1% and 1.2%
2 | 59.9 | 55.1% and 64.7% | 0.32 | 0.325 | 0.325 | 97 | 96 | 12.8* % | 10.7% and 14.8% | 96.6 | CCCCCCCOc1ccc(OC(C)C(=O)c2nc(C(=O)OC)cs2)cc1 (centres unmarked) [GK439] | 39.77% and 13.25% and 29.88% and 48.17% | 95.13% and 73.24% and 73.33% and 76.5% | 98.88% and 99.59% and 96.75% | 80 ± 10 | 0.0029 mole fraction and 0.0029 ± 0.0004 mole fraction | inhibition at 5 µM (SW982 synoviocytes; Homo sapiens, SW982, 5 µM, individual biological replicate): 116%; cPLA2α inhibition, Xi50 dose-response (recombinant human cPLA2α; Log [inhibitor] (mole%) -3.00): 33.0
3 | 21.3 | 20.1% and 22.4% | 0.18 | 0.184 | 0.184 | 100 | 99.5 | 0.9* % | 0.5% and 1.3% | 100.3 | COC(=O)c1csc(C(=O)COc2ccc(Oc3ccc(F)cc3)cc2)n1 [GK440] | 52.34% and 48.93% and 32.32% and 54.12% | 77.97% and 89.75% and 95.95% | 121.05% and 107.56% and 129.55% and 117.95% | 88 ± 8 | 0.0010 mole fraction and 0.0010 ± 0.0001 mole fraction | inhibition at 1 µM (SW982 synoviocytes; Homo sapiens, SW982, 1 µM, individual biological replicate, read-out: % inhibition of stimulated AA release): 90%; cPLA2α inhibition, Xi50 dose-response (recombinant human cPLA2α; Log [inhibitor] (mole%) -1.00): 102.2; cPLA2α inhibition, Xi50 dose-response (recombinant human cPLA2α; Log [inhibitor] (mole%) -1.22): 99.7
4 | 63 | 58.4% and 67.6% | 0.78 | 0.783 | 0.783 | 98 | 96.2 | 18.35* % | 16.1% and 20.6% | 97.5 | CCCCCCSc1ccc(OC(C)C(=O)c2nc(C(=O)OC)cs2)cc1 (centres unmarked) [GK449] | 16.56% and 7.46% and 9.46% and 46.5% | 47.16% and 43.5% and 67.91% and 74.94% | 92.05% and 77.81% and 56.83% and 101.84% | 58 ± 15 | 0.0017 mole fraction and 0.0017 ± 0.0005 mole fraction | times more potent than GK470 (recombinant human cPLA2α; cPLA2α XI(50) relative to GK470): 7–11
